The text below walks through data of paper PMC6274048, “Chemical Constituents of Malaysian U. cordata var. ferruginea and Their in Vitro α-Glucosidase Inhibitory Activities” (Molecules, 2016).

For this assay, the target named is α-glucosidase enzyme (type 1 from Baker's yeast) (Saccharomyces cerevisiae, UniProt P53341). Nature of the assay: α-Glucosidase inhibitory assay (p-nitrophenyl-α-D-glucopyranoside substrate, absorbance at 405 nm). In kind it is biochemical. Particulars: for inhibition at 1000 µg/mL: Concentration: 1 mg/mL, Means ± SD, n = 3; for IC50: α-glucosidase inhibition. As for the experimental part: The method of α-glucosidase inhibitory assay was adopted from Ahmad et al. with minor modification. The plant samples (extract/fraction/compound) were prepared in 5% DMSO at a concentration of 1000 μg/mL. A series of dilutions for each sample were prepared to give concentrations of 1000, 500, 250, 125, 62.5 and 31.25 μg/mL. Then, about 10 μL of sample, 20 μL of α-glucosidase enzyme solution (type 1 from Baker’s yeast), phosphate buffer saline (40 μL at pH 6.5) and deionized water (20 μL) were mixed in a 96-well plate. The mixture was incubated at 37 °C. After 10 min, 10 μL of 20 mM p-nitrophenyl-α-D-glucopyranoside solution was added into the mixture and absorbance at time 0 min was measured by the spectrophotometer (λ = 405 nm). Then, the reaction mixture was incubated at 37 °C for 30 min and the absorbance was measured. […] Experiments were performed in triplicates with three independent experiments. The percentage inhibitory activity was calculated using the following equation: (1) Inhibition (%)=(A30 min–A0 min) control – (A30 min – A0 min) sample × 100/(A30 min–A0 min) control where A is the absorbance of mixture measured at 405 nm.
α-glucosidase enzyme (type 1 from Baker's yeast), sequence (P53341 whole entry): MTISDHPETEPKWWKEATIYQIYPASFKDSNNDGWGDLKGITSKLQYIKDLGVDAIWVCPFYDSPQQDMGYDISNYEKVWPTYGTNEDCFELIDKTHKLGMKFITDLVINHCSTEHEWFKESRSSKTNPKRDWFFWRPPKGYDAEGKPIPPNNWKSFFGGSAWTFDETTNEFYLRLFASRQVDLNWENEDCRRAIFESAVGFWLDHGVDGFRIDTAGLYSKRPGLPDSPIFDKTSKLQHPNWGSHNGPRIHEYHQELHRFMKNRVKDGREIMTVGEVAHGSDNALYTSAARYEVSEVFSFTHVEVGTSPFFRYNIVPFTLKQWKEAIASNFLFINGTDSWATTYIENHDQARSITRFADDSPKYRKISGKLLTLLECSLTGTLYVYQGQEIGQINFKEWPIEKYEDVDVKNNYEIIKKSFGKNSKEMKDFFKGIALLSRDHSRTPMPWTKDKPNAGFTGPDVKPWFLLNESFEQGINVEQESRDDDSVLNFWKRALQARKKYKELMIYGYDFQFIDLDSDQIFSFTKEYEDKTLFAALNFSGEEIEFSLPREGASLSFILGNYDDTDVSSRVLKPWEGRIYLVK

Read-outs that look alike come from different tables or passages of the source.

`O=C(O)c1ccc(O)cc1O` [2,4-DHBA, 2,4-Dihydroxybenzoic acid] yielded an inhibition at 1000 µg/mL of 78.8 ± 0.4%. Besides, under “dilution series 1000-31.25 μg/mL, read-out: IC50 (μg/mL) (converted)”, the IC50 is 3.56 mM. Also, the IC50 (same IC50 in molar units, read-out: IC50) amounted to 3.56 mM. Take `C[C@H]1O[C@H](O[C@H]2[C@H](O)[C@@H](O)[C@@H](O[C@H]3[C@H](O)[C@@H](O)C(O)O[C@@H]3CO)O[C@@H]2CO)[C@H](O)[C@@H](O)[C@@H]1N[C@H]1C=C(CO)[C@@H](O)[C@H](O)[C@H]1O` (stereo partly shown) [Acarbose, reference compound]: the inhibition at 1000 µg/mL was found to be 90.9 ± 2.7%. On the same count and under the same terms, next, `COC(=O)C1=CO[C@@H](O[C@@H]2O[C@H](CO)[C@@H](O)[C@H](O)[C@H]2O)[C@@H]2[C@@H](C)[C@@H](O)C[C@H]12` [Loganin]: 44.9 ± 0.7%; `O=c1c(O)c(-c2ccc(O)c(O)c2)oc2cc(O)cc(O)c12` [Quercetin]: 84.5 ± 0.6%; `COc1cc2ccc(=O)oc2cc1O` [Scopoletin]: 34.5 ± 0.4%.

In general, inhibition refers to the percentage by which the read-out fell short of the control.
